The pIC50 is −log10 of the IC50, conventionally taken in molar units. A higher pIC50 goes with a small IC50.

pIC50: −log10 of the molar value. Where a name gives a salt, the structure may show the parent alone.

IC50 data for 21 compounds are collected here from patent US12187742B2 (XRAD Therapeutics, Inc., priority 2018, dated 2025).

One test has as its target ATM (Homo sapiens (Human), UniProt Q13315). As to the kind of experiment: ATM in Cell Western Assay (pKAP1 in etoposide-treated MCF-7 cells). Format: cell-based. An outline of the steps:
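Cells received compounds in a 10-dose, 3-fold series from a 1 μM final top concentration, then 100 μM etoposide, for 1 hr at 37° C. They were then fixed with paraformaldehyde and permeabilized with 0.1% Triton X-100. After immunostaining, plates were scanned on an infrared imager.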

For another test, the target named is DNA-PK (Homo sapiens (Human), UniProt P78527). The test can be described thus: DNA-PK Enzyme-Linked Immunosorbent Assay (phosphorylation of GST-p53 (1-101) peptide). The test is classed as biochemical. To be noted: ELISA. The method, boiled down: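 ELISA with plate-bound GST-p53 (1-101) phosphorylated by DNA-PK (0.1 μg/mL final) with 20 μM ATP for 1 h at 25 °C. Compounds tested over 10 3-fold doses from 100 nM top final. Phospho-p53 Ser15 detected by antibody, HRP and TMB, absorbance at 450 nm.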
On the technique in general: ELISA stands for enzyme-linked immunosorbent assay.

Where [1] appears, read: MCF-7 cells, etoposide 100 μM, 1 hr, pKAP1 readout.
Where [2] appears, read: pKAP1 in etoposide-treated MCF-7 cells.

Sequence of ATM (Q13315 whole entry): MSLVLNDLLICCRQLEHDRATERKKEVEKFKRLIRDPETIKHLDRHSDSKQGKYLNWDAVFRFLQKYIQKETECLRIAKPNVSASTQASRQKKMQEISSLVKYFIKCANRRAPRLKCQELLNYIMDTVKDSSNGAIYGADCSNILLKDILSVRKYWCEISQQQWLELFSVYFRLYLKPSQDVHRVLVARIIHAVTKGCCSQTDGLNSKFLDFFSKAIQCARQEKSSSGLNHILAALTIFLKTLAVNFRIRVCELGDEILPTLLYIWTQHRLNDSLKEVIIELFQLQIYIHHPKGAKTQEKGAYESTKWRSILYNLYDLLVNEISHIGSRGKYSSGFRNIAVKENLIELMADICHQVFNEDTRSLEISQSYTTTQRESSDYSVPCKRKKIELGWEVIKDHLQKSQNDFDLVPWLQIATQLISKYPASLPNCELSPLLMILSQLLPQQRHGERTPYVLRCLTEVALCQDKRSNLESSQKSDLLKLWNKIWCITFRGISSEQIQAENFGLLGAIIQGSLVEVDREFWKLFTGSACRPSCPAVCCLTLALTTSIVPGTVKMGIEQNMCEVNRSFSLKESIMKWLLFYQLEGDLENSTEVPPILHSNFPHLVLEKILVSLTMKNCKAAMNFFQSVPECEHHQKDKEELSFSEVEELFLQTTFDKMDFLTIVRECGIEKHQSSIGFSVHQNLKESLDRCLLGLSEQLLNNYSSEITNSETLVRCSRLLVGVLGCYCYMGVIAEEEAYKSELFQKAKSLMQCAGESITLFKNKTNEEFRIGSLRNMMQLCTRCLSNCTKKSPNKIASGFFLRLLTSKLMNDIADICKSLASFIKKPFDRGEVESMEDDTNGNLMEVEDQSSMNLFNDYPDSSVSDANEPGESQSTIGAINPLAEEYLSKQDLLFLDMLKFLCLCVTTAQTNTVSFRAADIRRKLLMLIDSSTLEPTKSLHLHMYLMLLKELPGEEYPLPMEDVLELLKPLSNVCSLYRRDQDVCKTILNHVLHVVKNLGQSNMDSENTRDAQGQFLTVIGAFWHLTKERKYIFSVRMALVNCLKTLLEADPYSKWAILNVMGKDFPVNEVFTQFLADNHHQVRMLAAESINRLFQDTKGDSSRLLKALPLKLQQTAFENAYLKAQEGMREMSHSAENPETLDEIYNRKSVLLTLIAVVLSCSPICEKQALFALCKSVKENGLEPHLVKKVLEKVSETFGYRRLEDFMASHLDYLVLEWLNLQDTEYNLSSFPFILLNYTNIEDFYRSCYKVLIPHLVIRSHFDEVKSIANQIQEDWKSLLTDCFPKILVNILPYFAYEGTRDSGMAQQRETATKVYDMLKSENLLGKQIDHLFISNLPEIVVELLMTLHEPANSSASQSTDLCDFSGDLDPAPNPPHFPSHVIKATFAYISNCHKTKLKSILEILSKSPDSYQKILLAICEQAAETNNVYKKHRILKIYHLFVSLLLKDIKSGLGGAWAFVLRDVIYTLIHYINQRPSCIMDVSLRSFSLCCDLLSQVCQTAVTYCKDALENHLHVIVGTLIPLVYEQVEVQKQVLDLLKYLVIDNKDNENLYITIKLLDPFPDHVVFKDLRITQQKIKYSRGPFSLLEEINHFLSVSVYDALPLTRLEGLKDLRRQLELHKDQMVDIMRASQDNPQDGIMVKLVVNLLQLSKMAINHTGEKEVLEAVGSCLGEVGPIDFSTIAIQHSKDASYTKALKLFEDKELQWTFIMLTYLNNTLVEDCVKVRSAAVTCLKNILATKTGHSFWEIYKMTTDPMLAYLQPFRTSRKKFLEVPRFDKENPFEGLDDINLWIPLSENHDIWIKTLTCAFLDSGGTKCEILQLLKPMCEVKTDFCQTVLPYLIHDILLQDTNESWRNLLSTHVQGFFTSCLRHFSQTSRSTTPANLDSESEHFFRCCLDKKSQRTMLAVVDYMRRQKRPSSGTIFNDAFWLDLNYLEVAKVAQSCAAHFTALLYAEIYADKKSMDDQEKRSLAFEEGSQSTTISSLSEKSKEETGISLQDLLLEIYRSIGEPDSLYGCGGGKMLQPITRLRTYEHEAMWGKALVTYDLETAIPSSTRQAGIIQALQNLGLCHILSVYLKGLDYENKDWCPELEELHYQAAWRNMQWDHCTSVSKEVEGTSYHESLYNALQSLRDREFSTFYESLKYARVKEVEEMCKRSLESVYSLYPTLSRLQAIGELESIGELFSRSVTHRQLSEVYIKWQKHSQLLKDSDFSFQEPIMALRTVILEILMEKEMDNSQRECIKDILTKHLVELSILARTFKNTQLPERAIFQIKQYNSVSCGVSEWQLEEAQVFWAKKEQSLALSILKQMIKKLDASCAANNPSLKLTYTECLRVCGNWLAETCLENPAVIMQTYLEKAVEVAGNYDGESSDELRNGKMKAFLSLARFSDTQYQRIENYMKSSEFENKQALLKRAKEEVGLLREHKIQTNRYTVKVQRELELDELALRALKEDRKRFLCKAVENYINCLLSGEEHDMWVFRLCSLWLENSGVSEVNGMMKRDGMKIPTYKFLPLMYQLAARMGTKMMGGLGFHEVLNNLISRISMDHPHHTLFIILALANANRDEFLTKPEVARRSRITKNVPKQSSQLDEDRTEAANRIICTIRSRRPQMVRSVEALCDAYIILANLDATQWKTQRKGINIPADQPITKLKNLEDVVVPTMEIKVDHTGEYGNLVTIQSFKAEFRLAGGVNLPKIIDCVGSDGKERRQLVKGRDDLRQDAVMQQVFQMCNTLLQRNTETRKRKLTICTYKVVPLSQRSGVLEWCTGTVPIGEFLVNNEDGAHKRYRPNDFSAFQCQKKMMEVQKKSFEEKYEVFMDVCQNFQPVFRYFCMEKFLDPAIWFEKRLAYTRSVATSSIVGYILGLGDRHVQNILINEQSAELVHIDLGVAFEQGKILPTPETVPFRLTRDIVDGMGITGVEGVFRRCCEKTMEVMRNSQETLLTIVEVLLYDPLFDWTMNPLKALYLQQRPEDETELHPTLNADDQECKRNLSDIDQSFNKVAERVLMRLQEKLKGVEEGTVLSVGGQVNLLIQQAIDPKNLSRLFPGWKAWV

For the compound `CCCS(=O)(=O)Nc1cc(-c2ccc3ncc4c(c3c2)C2(CCC2)C(=O)N4C)cnc1OCCCN(C)C` [Example 241, N-(2-(3-(Dimethylamino)propoxy)-5-(3′-methyl-2′-oxo-2′,3′-dihydrospiro [cyclobutane-1,1′-pyrrolo[2,3-c]quinolin]-8′-yl)pyridin-3-yl)propane-1-sulfonamide], the pIC50 against ATM (setting [1]) and against DNA-PK (ATP 20 μM) was 7.00 to 9.00 throughout.
Consider `CN1CCN(c2ncc(-c3cc4c5c(cnc4cc3F)N(C)C(=O)C53CC3)cc2NS(=O)(=O)c2ccccc2)CC1` [Example 117, N-(5-(7′-Fluoro-3′-methyl-2′-oxo-2′,3′-dihydrospiro [cyclopropane-1,1′-pyrrolo[2,3-c]quinolin]-8′-yl)-2-(4-methylpiperazin-l-yl)Pyridin-3-yl)benzenesulfonamide hydrochloride], for which the negative-log IC50 (pIC50) at ATM (setting [1]) and on DNA-PK (ATP 20 μM) was 7.00 to 9.00 throughout.
As for `COc1ccc([C@H]2C[C@]3(C2)C(=O)N(C)c2cnc4cc(F)c(-c5cnc(OCCNC(C)C)c(NS(C)(=O)=O)c5)cc4c23)cc1` [Example 420, cis-N-(5-(7′-Fluoro-3-(4-methoxyphenyl)-3-methyl-2′-oxo-2′,3′-dihydrospiro[cyclobulane-1,1′-pyrrolo[2,3-c]quinolin]-8′-yl)-2-(2-(isopropylamino)ethoxy)pyridin-3-yl)methanesulfonamide hydrochloride], the negative logarithm of the IC50 (pIC50) against ATM (setting [2]) and against DNA-PK (20 μM ATP) was 7.00 to 9.00 throughout.
For the compound `CN1C(=O)C2(CC2)c2c1cnc1ccc(-c3cnc(N4CCC(N5CCCCC5)CC4)c(NS(=O)(=O)c4ccccc4)c3)cc21` [Example 213, N-(2-([1,4′-Bipiperidin]-1′-yl)-5-(3′-methyl-2′-oxo-2′,3′-dihydrospiro[cyclopropane-1,1′-pyrrolo[2,3-c]quinolin]-8′-yl)pyridin-3-yl)benzenesulfonamide methanesulfonate], the negative logarithm of the IC50 (pIC50) against ATM (setting [1]) and against DNA-PK (ATP 20 μM) was 7.00 to 9.00 in each case.
Turning to `CC(C)NCCOc1ncc(-c2cc3c4c(cnc3cc2F)N(C)C(=O)C42CN(c3ccc(Cl)cc3)C2)cc1NS(C)(=O)=O` [Example 523, N-(5-(1-(4-Chlorophenyl)-7′-fluoro-3′-methyl-2′-oxo-2′,3′-dihydrospiro[azetidine-3,1′-pyrrolo[2,3-c]quinolin]-8′-yl)-2-(2-(isopropylamino)ethoxy)pyridin-3-yl)methanesulfonamide hydrochloride], the pIC50 against ATM (setting [2]) is 7.00 to 9.00; against DNA-PK (20 μM ATP) it was greater than 9.30.
Consider `CCN(C)S(=O)(=O)Nc1cc(-c2ccc3ncc4c(c3c2)C2(CCC2)C(=O)N4C)cnc1OCCCN(C)C` [Example 163, 8′-{6-[3-(Dimethylamino)propoxy]5-{[ethyl(methyl)sulfamoyl]amino}pyridin-3-yl}-3′-Methyl-2′,3′-dihydrospiro[cyclobutane-1,1′-pyrrolo[2,3-c]quinoline]-2′-one], for which the pIC50 is 7.00 to 9.00 against ATM (setting [1]) and 9.00 to 9.30 against DNA-PK (ATP 20 μM).
The corresponding values for `CCNCCOc1ncc(-c2ccc3ncc4c(c3c2)C2(CCC2)C(=O)N4C)cc1NS(C)(=O)=O` [Example 248, N-(2-(2-(Ethylamino)ethoxy)-5-(3′-methyl-2′-oxo-2′,3′-dihydrospiro[cyclobutane-1,1′-pyrrolo[2,3-c]quinolin]-8′-yl)pyridin-3-yl) methanesulfonamide] are 7.00 to 9.00 and greater than 9.30.
For the compound `Cc1cc(S(=O)(=O)Nc2cc(-c3ccc4ncc5c(c4c3)C3(CCC3)C(=O)N5C)cnc2OCCCN(C)C)sn1` [Example 170, N-(2-(3-(Dimethylamino)propoxy)-5-(3′-methyl-2′-oxo-2′,3′-dihydrospiro [cyclobutane-1,1′-pyrrolo[2,3-c]quinolin]-8′-yl)pyridin-3-yl)-3-methylisothiazole-5-sulfonamide hydrochloride], the negative logarithm of the IC50 (pIC50) against ATM (setting [1]) is 7.00 to 9.00; against DNA-PK (ATP 20 μM) it was greater than 9.30.
Taken in the same sequence, the figures for `Cc1ccc(S(=O)(=O)Nc2cc(-c3ccc4ncc5c(c4c3F)C3(CCC3)C(=O)N5C)cnc2OCCCN(C)C)cc1` [Example 204, N-(2-(3-(Dimethylamino)propoxy)-5-(9′-fluoro-3′-methyl-2′-oxo-2′,3′-dihydrospiro[cyclobutane-1,1′-pyrrolo[2,3-c]quinolin]-8′-yl)pyridin-3-yl)-4-methylbenzenesulfonamide] were 7.00 to 9.00 and 9.00 to 9.30.
The corresponding values for `CN(C)CCCOc1ncc(-c2ccc3ncc4c(c3c2)C2(CCC2)C(=O)N4C)cc1NS(=O)(=O)N1CCOCC1` [Example 136, N-(2-(3-(Dimethylamino)propoxy)-5-(3′-methyl-2′-oxo-2′,3′-dihydrospiro [cyclobutane-1,1′-pyrrolo[2,3-c]quinolin]-8′-yl)pyridin-3-yl)morpholine-4-sulfonamide hydrochloride] are 7.00 to 9.00 and 7.00 to 9.00.
With `Cc1ncc(S(=O)(=O)Nc2cc(-c3cc4c5c(cnc4cc3F)N(C)C(=O)C53CN(c4ccccc4)C3)cnc2OCCNC(C)C)s1` [Example 520, N-(5-(7′-Fluoro-3′-methyl-2′-oxo-1-phenyl-2′,3′-dihydrospiro[azetidine-3,1′-pyrrolo[2,3-c]quinolin]-8′-yl)-2-(2-(isopropylamino)ethoxy)pyridin-3-yl)-2-methylthiazole-5-sulfonamide], the pIC50 against ATM (setting [2]) and against DNA-PK (20 μM ATP) was 7.00 to 9.00 each time.
In the case of `CC(C)NCCOc1ncc(-c2cc3c(cc2F)ncc2c3[C@]3(C[C@@H](c4cccc(Cl)c4)C3)C(=O)N2C)cc1NS(C)(=O)=O` [Example 419, trans-N-(5-(3-(3-Chlorophenyl)-7′-fluoro-3′-methyl-2′-oxo-2′,3′-dihydrospiro[cyclobutane-1,1′-pyrrolo[2,3-c]quinolin]-8′-yl)-2-(2-(isopropylamino)ethoxy)pyridin-3-yl)methanesulfonamide], the figures for the pIC50 against ATM (setting [2]) and on DNA-PK (20 μM ATP) were less than 7.00 and 7.00 to 9.00, respectively.
Turning to `COc1ccc(S(=O)(=O)Nc2cc(-c3ccc4ncc5c(c4c3)C3(CCC3)C(=O)N5C)cnc2OCCCN(C)C)cn1` [Example 133, N-(2-(3-(Dimethylamino)propoxy)-5-(3′-methyl-2′-oxo-2′,3′-dihydrospiro[cyclobulane-l.1′-pyrrolo[2,3-c]quinolin]-8′-yl)pyridin-3-yl)-6-methoxypyridine-3-sulfonamide hydrochloride], the results for the pIC50 against ATM (setting [1]) and at DNA-PK (ATP 20 μM) were 7.00 to 9.00 and 9.00 to 9.30, respectively.
Taken in the same sequence, the figures for `COCCN(C)CCCOc1ncc(-c2ccc3ncc4c(c3c2)C2(CCC2)C(=O)N4C)cc1NS(C)(=O)=O` [Example 278, N-(2-(3-((2-Methoxyethyl)(methyl)amino)propoxy)-5-(3′-methyl-2′-oxo-2′,3′-dihydrospiro[cyclobutane-1,1′-pyrrolo[2,3-c]quinolin]-8′-yl)pyridin-3-yl)methanesulfonamide] were 9.00 to 9.30 and 7.00 to 9.00.
The corresponding values for `COc1ncc(-c2ccc3ncc4c(c3c2)C2(CC2)C(=O)N4C)cc1NS(=O)(=O)c1ccc([N+](=O)[O-])cc1` [Example 12, N-(2-Methoxy-5-(3′-methyl-2′-oxo-2′,3′-dihydrospiro [cyclopropane-1,1′-pyrrolo[2,3-c]quinolin]-8′-yl)pyridin-3-yl)-4-nitrobenzenesulfonamide] are 7.00 to 9.00 and greater than 9.30.
The corresponding values for `CN1C(=O)C2(CC2)c2c1cnc1cc(F)c(-c3cnc(OCCCN4CCCCC4)c(NS(=O)(=O)c4ccccc4)c3)cc21` [Example 118, N-(5-(7′-Fluoro-3′-methyl-2′-oxo-2′,3′-dihydrospiro[cyclopropane-1,1′-pyrrolo[2,3-c]quinolin]-8′-yl)-2-(3-(piperidin-1-yl)propoxy)pyridin-3-yl)benzenesulfonamide hydrochloride] are 7.00 to 9.00 and 7.00 to 9.00.
For `CCS(=O)(=O)Nc1cc(-c2ccc3ncc4c(c3c2)C2(CC2)C(=O)N4C)cnc1OCCCN(C)C` [Example 61, N-(2-(3-(Dimethylamino)propoxy)-5-(3′-methyl-2′-oxo-2′,3′-dihydrospiro [cyclopropane-1,1′-pyrrolo[2,3-c]quinolin]-8′-yl)pyridin-3-ylethanesulfonamide hydrochloride], the pIC50 against ATM (setting [1]) and at DNA-PK (ATP 20 μM) was 7.00 to 9.00 throughout.
As for `CCN1C(=O)C2(CC2)c2c1cnc1ccc(-c3cnc(OCCCN(C)C)c(NS(=O)(=O)c4ccccc4)c3)cc21` [Example 42, N-(2-(3-(Dimethylamino)propoxy)-5-(3′-ethyl-2′-oxo-2′,3′-dihydrospiro [cyclopropane-1,1′-pyrrolo[2,3-c]quinolin]-8′-yl)pyridin-3-yl)benzenesulfonamide], the pIC50 is 7.00 to 9.00 against ATM (setting [1]) and 9.00 to 9.30 on DNA-PK (ATP 20 μM).
`CN(C)CCCOc1ccc(-c2ccc3ncc4c(c3c2)C2(CC2)C(=O)N4C)cn1` [Example 1, 8′-(6-(3-(Dimethylamino)propoxy)pyridin-3-yl)-3′-methylspiro [cyclopropane-1,1′-pyrrolo[2,3-c]quinolin]-2′(3′-H)-one]: the negative logarithm of the IC50 (pIC50) against ATM (setting [1]) and against DNA-PK (ATP 20 μM) was 7.00 to 9.00 throughout.
Turning to `CC(C)NCCOc1ncc(-c2cc3c(cc2F)ncc2c3[C@]3(C[C@H](c4ccc(Cl)cc4)C3)C(=O)N2C)cc1NS(C)(=O)=O` [Example 416, cis-N-(5-(3-(4-Chlorophenyl)-7′-fluoro-3′-methyl-2′-oxo-2′,3′-dihydrospiro[cyclobutane-1,1′-pyrrolo[2,3-c]quinolin]-8′-yl)-2-(2-(isopropylamino)ethoxy)pyridin-3-yl)methanesulfonamide], the negative-log IC50 (pIC50) on ATM (setting [2]) and against DNA-PK (20 μM ATP) was 7.00 to 9.00 each time.
For `CN(C)CCCOc1ncc(-c2ccc3ncc4c(c3c2)C2(CC2)C(=O)N4C)cc1NS(=O)(=O)C1CCC1` [Example 69, N-(2-(3-(Dimethylamino)propoxy)-5-(3′-methyl-2′-oxo-2′,3′-dihydrospiro[cyclopropane-1,1′-pyrrolo[2,3-c]quinolin]-8′-yl)pyridin-3-yl)cyclobutanesulfonamide], the negative-log IC50 (pIC50) at ATM (setting [1]) and at DNA-PK (ATP 20 μM) was 7.00 to 9.00 each time.
